Test results as given in US11090292B2, “Compositions and methods of use of an inappetance-controlling compound” (Aratana Therapeutics, Inc., priority 2012, dated 2021).

Experiments:
IGF-1 [1] = assay: Example 12: serum IGF-1; type: in vivo, cats; conditions: Day 0
Method: Similar to some of the other pharmacokinetic analyses conducted in dogs and cats, an additional pharmacokinetic study was conducted in cats to assess capromorelin formulations that allow sufficient drug to circulate to produce appetite stimulation and to define the capromorelin pharmacokinetic profile in cats. Briefly, twelve cats were randomized into Group 1 (six cats) and Group 2 (six cats). Group 1 received an intravenous formulation that included 0.75 mg/kg of capromorelin dissolved in sterile water and Group 2 received a previously tested formulation via oral gavage. Food consumption was determined daily for all cats. Specifically, animals were offered feed at approximately 11:00 AM, with the removal of feed at approximately 3:00 PM. Upon removal of feed, the amount consumed was calculated. […] Initially, the cats were given a seven day acclimation period to adjust to the experimental conditions and feed provided. After the acclimation period, on Day 0, all animals in Group 1 received an intravenous injection of the composition containing a dose of 0.75 mg/kg of capromorelin. On Day 0, the animals in Group 2 received an oral administration of the formulation via gavage at a dose of 3 mg/kg of capromorelin. […]

IGF-1 [2] = assay: Example 9: serum IGF-1 concentration; type: in vivo, cats
Method: (§1) A four-day study was performed to further assess the pharmacokinetics of formulation 8 from Example 3 (i.e., the most “well-accepted” formulation) in cats. Moreover, the administration of formulation 8 was also analyzed to determine if administration of this formulation could induce sustained production of IGF-1 and relatively depressed, mitigated, or lower levels of cortisol. The different capromorelin-dosing regimens were also assessed for the impact on food intake and changes in body mass.
(§2) Twenty-four adult cats were divided into one of four treatment groups, with all four groups as active treatment groups. Each of the active treatment groups included 6 cats. The first group received a sterile injection of a capromorelin composition containing a 0.75 mg/kg concentration of capromorelin once per day during the four-day experiment. The second group received a once-daily sterile injection of a capromorelin composition at a concentration of 2 mg/kg. The third group received a once-daily dose of a capromorelin composition at a concentration of 2 mg/kg, via oral gavage. The fourth group received a once-daily dose of a capromorelin composition containing capromorelin at a concentration of 4 mg/kg, via oral gavage.
(§3) During the seven day study period, on an at least once-daily basis, each of the cats was monitored for clinical observations, mortality, moribundity, body mass, acceptability/palatability, and food consumption. Serum samples were taken to measure capromorelin concentration, IGF-1 concentration, and cortisol concentration. Serum samples were taken on days 1 and 4 immediately prior to dosing (0 minutes) and 30, 60, 90, 120, 240, 360, and/or 480 minutes post dosing. Additional serum samples were taken at 8 AM on Day 7 of the study to assess long-term impact of the active treatments.

[3] = system: insulin-like growth factor 1 (IGF-1); assay: Example 1: serum IGF-1 concentration; type: in vivo, Beagle dogs
Method: A controlled, seven-day study was performed to assess the impact of different capromorelin-dosing regimens on the production of insulin-like growth factor 1 (hereinafter “IGF-1”), growth hormone (hereinafter “GH”), and cortisol. The different capromorelin-dosing regimens were also assessed for the impact on food intake and changes in body mass.
Eighteen adult non-naïve Beagle dogs (nine males and nine females) were divided into one of three treatment groups. Each of the three treatment groups included three males and three females. Group A, which was the control group, was dosed twice per day, via oral gavage, with a vehicle (deionized water alone) and was used as a baseline data point for comparison against the active treatment regimens. Group B comprised an active treatment group that received two treatments per day, via oral gavage, with a capromorelin-containing composition with a concentration of 3 mg/kg capromorelin per treatment. Finally, Group C comprised an active treatment group that received one treatment per day, via oral gavage, with a capromorelin-containing composition with a concentration of 6 mg/kg capromorelin per treatment.
During the ten day study period, on an at least once-daily basis, each of the dogs was monitored for clinical observations, mortality, morbidity, body mass, and food consumption. […]

[4] = Example 4: clinical observations / toxicological responses; type: in vivo; conditions: 3 mg/kg once or twice daily, 7 days
Method: During the ten day study period, on an at least once-daily basis, each of the dogs was monitored for clinical observations, mortality, moribundity, body mass, acceptability/palatability, and food consumption. Serum samples were taken to measure capromorelin concentration, GH concentration, IGF-1 concentration, and cortisol concentration. Serum samples were taken on days 1, 2, 4, and 7 at −15 minutes (pre-dose), immediately prior to dosing (0 minutes) and 30, 45, 60, 90, 120, 240, 360, and/or 480 minutes post dosing. Additional serum samples were taken at 8 AM on Day 10 of the study to assess long-term impact of the active treatments.

[5] = Example 9 four-day cat dosing regimen study: food consumption and body weight; type: in vivo, cats; conditions: for increase in body weight relative to baseline measurements: four days
Method: as §1, §2, §3

For `CN1N=C2CCN(C(=O)[C@@H](COCc3ccccc3)NC(=O)C(C)(C)N)C[C@@]2(Cc2ccccc2)C1=O.O=C(O)C(O)C(O)C(=O)O` [capromorelin], the “IGF-1 levels in the serum, Group 1 (IV 0.75 mg/kg) compared to Group 2 (oral 3 mg/kg)” value (IGF-1 [1]) was “greater increased in IGF-1 levels”, the “increase in serum IGF-1 concentration at eight hours post administration relative to time 0” value (IGF-1 [2]; 0.75 mg/kg sterile injectable, day 1) was “approximately 39.8%” and the “increase in serum IGF-1 concentration at eight hours post administration relative to time 0” value (IGF-1 [2]; 0.75 mg/kg sterile injectable, day 4) was “approximately 12.2%”. The “increase in serum IGF-1 concentration at eight hours post administration relative to time 0” value (IGF-1 [2]; 2 mg/kg oral, day 1) was “approximately 26.6%”, the “increase in serum IGF-1 concentration at eight hours post administration relative to time 0” value (IGF-1 [2]; 2 mg/kg oral, day 4) was “approximately 7.6%” and the “increase in serum IGF-1 concentration at eight hours post administration relative to time 0” value (IGF-1 [2]; 2 mg/kg sterile injectable, day 1) was ~43.1%. The “increase in serum IGF-1 concentration at eight hours post administration relative to time 0” value (IGF-1 [2]; 2 mg/kg sterile injectable, day 4) was ~10.8%, the “increase in serum IGF-1 concentration at eight hours post administration relative to time 0” value (IGF-1 [2]; 4 mg/kg oral, day 1) was ~30.8% and the “increase in serum IGF-1 concentration at eight hours post administration relative to time 0” value (IGF-1 [2]; 4 mg/kg oral, day 4) was ~0.7%. For the same compound, the “serum IGF-1 levels versus deionized water three days after terminating treatment” value ([3]; Day 10) was “not significantly different”, the “serum IGF-1 levels relative to deionized water” value ([3]; days 2, 4 and 7 of treatment, both doses) was “remained consistently higher” and the toxicological responses [4] was “no toxicological responses were noted”. For the same compound, the “increase in body weight relative to baseline measurements” value ([5]; 0.75 mg/kg sterile injection once daily) was 1.33%, the “increase in body weight relative to baseline measurements” value ([5]; 2 mg/kg oral once daily) was 0.70% and the “increase in body weight relative to baseline measurements” value ([5]; 2 mg/kg sterile injection once daily) was 2.37%. The “increase in body weight relative to baseline measurements” value ([5]; 4 mg/kg oral once daily) was 1.47% and the “food consumed relative to prior days of the experiment” value ([5]; sterile injectable formulations (0.75, 2 mg/kg) or 4 mg/kg oral gavage, once daily) was “consumed more food on day 4”.
